Source: patent publication US20250268903A1, “RXFP1 AGONISTS” (BRISTOL-MYERS SQUIBB COMPANY, priority 2021, published 2025)

Target: T1, human RXFP1 (Homo sapiens, UniProt Q9HBX9)
T1 construct: expressed in transfected cells
T1 sequence (Q9HBX9 1-757): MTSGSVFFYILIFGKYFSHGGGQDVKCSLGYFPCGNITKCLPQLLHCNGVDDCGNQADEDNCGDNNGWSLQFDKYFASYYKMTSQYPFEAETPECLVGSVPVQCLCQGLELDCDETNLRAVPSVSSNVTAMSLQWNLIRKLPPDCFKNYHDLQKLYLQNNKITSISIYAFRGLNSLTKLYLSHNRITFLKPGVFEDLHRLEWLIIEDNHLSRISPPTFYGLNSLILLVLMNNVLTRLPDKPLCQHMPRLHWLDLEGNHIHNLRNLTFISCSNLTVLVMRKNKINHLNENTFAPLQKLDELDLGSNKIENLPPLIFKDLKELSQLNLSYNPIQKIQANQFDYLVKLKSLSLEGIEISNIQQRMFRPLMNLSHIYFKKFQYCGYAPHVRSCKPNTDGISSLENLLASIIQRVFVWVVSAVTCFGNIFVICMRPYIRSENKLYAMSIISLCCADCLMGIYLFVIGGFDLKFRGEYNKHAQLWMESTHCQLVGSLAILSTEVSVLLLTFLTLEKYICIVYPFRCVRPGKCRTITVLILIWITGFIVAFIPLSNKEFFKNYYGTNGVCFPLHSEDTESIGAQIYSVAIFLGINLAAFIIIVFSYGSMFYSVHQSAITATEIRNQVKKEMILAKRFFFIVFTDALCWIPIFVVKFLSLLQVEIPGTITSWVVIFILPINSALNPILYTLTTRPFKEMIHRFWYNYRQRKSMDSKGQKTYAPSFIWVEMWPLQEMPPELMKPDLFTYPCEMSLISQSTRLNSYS
Assay: hRXFP1 HEK293 cAMP assay (HTRF)
Format: cell-based
Conditions: HEK293 cells stably expressing human RXFP1, 30 min at room temperature
In short: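 HEK293 cells stably expressing human RXFP1 (1500 cells/well) in HBSS/20 mM HEPES/0.05% BSA/0.5 mM IBMX. Compounds were tested at 0.010 nM–50 μM final (2% DMSO) for 30 min at room temperature. cAMP was measured by HTRF and values derived by 4-parameter logistic fit.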

Row | EC50 [nM] | Structure (SMILES)
1 | 31.4 | COc1ccc(/C=C(\C)C(=O)N2CCC(O)CC2)cc1C(=O)N[C@H]1[C@@H](C(=O)Nc2ccc(F)c(C(F)(F)F)c2)[C@H]2CC[C@@H]1/C2=C\C(F)(F)F [Example 312, (1R,2S,3R,4R,7Z)-N-[4-fluoro-3-(trifluoromethyl)phenyl]-3-{5-[(1E)-3-(4-hydroxypiperidin-1-yl)-2-methyl-3-oxoprop-1-en-1-yl]-2-methoxybenzamido}-7-(2,2,2-trifluoroethylidene) bicyclo[2.2.1]heptane-2-carboxamide]
2 | 32.9 | COc1ccc(/C=C/C(=O)N2CC(O)C2)cc1C(=O)N[C@H]1[C@@H](C(=O)Nc2ccc(F)c(C(F)(F)F)c2)[C@H]2CC[C@@H]1/C2=C\C1CC1 [Example 313, (1R,2S,3R,4R,7Z)-7-(cyclopropyl-methylidene)-N-[4-fluoro-3-(trifluoromethyl)phenyl]-3-{5-[(1E)-3-(3-hydroxyazetidin-1-yl)-3-oxoprop-1-en-1-yl]-2-methoxybenzamido} bicyclo[2.2.1]heptane-2-carboxamide]
3 | 66.2 | COc1ccc(/C=C/C(=O)N2CC(O)C2)cc1C(=O)N[C@H]1[C@@H](C(=O)Nc2ccc(F)c(C(F)(F)F)c2)[C@H]2CC[C@@H]1/C2=C\C(F)(F)F [Example 314]
4 | 91.2 | COc1ccc(/C=C/C(=O)N2CCC(C(F)(F)F)CC2)cc1C(=O)N[C@H]1[C@@H](C(=O)Nc2ccc(F)c(C(F)(F)F)c2)[C@H]2CC[C@@H]1/C2=C\C1CC1 [Example 315]
5 | 96.7 | COc1ccc(/C=C/C(=O)N2CCC(C#N)CC2)cc1C(=O)N[C@H]1[C@@H](C(=O)Nc2ccc(F)c(C(F)(F)F)c2)[C@H]2CC[C@@H]1/C2=C\C1CC1 [Example 316, (1R,2S,3R,4R,7Z)-3-{5-[(1E)-3-(4-cyanopiperidin-1-yl)-3-oxoprop-1-en-1-yl]-2-methoxybenzamido}-7-(cyclopropylmethylidene)-N-[4-fluoro-3-(trifluoromethyl)phenyl]bicyclo[2.2.1] heptane-2-carboxamide]
6 | 140 | COc1ccc(/C=C/C(=O)N2CCC(S(C)(=O)=O)CC2)cc1C(=O)N[C@H]1[C@@H](C(=O)Nc2ccc(F)c(C(F)(F)F)c2)[C@H]2CC[C@@H]1/C2=C\C1CC1 [Example 317, (1R,2S,3R,4R,7Z)-7-(cyclopropyl-methylidene)-N-[4-fluoro-3-(trifluoromethyl)phenyl]-3-{5-[(1E)-3-(4-methanesulfonyl-piperidin-1-yl)-3-oxoprop-1-en-1-yl]-2-methoxybenzamido} bicyclo[2.2.1]heptane-2-carboxamide]
7 | 2230 | CCOC(=O)/C(C)=C/c1ccc(OC)c(C(=O)N[C@H]2[C@@H](C(=O)Nc3ccc(F)c(C(F)(F)F)c3)[C@H]3CC[C@@H]2/C3=C\C(F)(F)F)c1 [Example 318, ethyl (2E)-3-(3-{[(1R,2R,3S,4R,7Z)-3-{[4-fluoro-3-(trifluoromethyl)phenyl]carbamoyl}-7-(2,2,2-trifluoroethylidene)bicyclo[2.2.1]heptan-2-yl]carbamoyl}-4-methoxyphenyl)-2-methylprop-2-enoate]
8 | 1120 | COc1ccc(/C=C(/C)C(=O)N2CCC(O)CC2)cc1C(=O)N[C@H]1[C@@H](C(=O)Nc2ccc(F)c(C(F)(F)F)c2)[C@H]2CC[C@@H]1/C2=C\C(F)(F)F [Example 319]
9 | 81.2 | COc1ccc(CCC(=O)N2CCC(O)CC2)cc1C(=O)N[C@H]1[C@@H](C(=O)Nc2ccc(F)c(C(F)(F)F)c2)[C@H]2CC[C@@H]1/C2=C\C(F)(F)F [Example 320]
10 | 26.1 | COc1ccc(C2CC(C(=O)N3CCC(O)CC3)C2)cc1C(=O)N[C@H]1[C@@H](C(=O)Nc2ccc(F)c(C(F)(F)F)c2)[C@H]2CC[C@@H]1/C2=C\C1CC1 (stereo partly shown) [Example 327]
